We go through two compounds from paper PMC12446476 (Nature Communications, 2025).

What is called IC50 is the midpoint of a concentration-inhibition curve.

In one data set the test system is N. gonorrhoeae. Description: MIC determination, agar dilution (CLSI). Type of data set: cell-based, Neisseria gonorrhoeae. The following applies: Neisseria gonorrhoeae, read-out: Minimum inhibitory concentration. The source says: The 2024 WHO N. gonorrhoeae reference strains were used for quality control. Only whole MIC doubling dilutions are reported. Clinical breakpoints or the epidemiological cutoff (ECOFF, to indicate azithromycin resistance) from EUCAST (v14.0, https://www.eucast.org/clinical_breakpoints) were used to classify isolates as antimicrobial susceptible or resistant. […] Two times the standard inoculum defined by CLSI was used to establish consistent growth in untreated control samples for some strains. In vitro time-kill assays were performed according to CLSI guidelines[65] using Columbia Broth (BD Difco) supplemented with 1% IsoVitaleX Enrichment (BD). Viable bacterial counts were generated by plating 10-fold serially diluted samples on GC agar plates containing 1% IsoVitaleX Enrichment (BD).
(In general: Agar dilution tests growth on a series of plates holding different concentrations.)

The target of data set [1] is recombinant NgFabI protein (Neisseria gonorrhoeae, UniProt A0ACH0F547). The settings on record: cited from earlier work.
recombinant NgFabI protein, sequence (A0ACH0F547 entry or part of it): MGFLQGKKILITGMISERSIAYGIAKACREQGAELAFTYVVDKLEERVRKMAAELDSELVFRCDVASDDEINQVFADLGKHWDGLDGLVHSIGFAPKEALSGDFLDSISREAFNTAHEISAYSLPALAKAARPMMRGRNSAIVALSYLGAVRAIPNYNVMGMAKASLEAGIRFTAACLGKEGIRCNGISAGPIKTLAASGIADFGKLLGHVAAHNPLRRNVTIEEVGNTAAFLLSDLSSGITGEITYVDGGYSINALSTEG
In another data set the test system is E. coli WP2 uvrA. Description: Ames assay, E. coli strain. It is filed as cell-based. The settings on record: without S9, positive control 500 µg/plate. How it is done:
Ames assays were performed using four strains of Salmonella typhimurium (TA1535, TA1537, TA98 and TA100) and a single strain of E. coli (WRP2 uvrA) in the presence and absence of S9 tissue homogenate. Dose levels (µg/plate) up to 4000 were assessed for WP2 uvrA and TA98, 500 for TA1535, 250 for TA1537 and 62.5 for TA100.

Data set [2] concerns mouse lymphoma L5178Y TK+/− cells. It is filed as cell-based. The settings on record: positive control, 10 µg/mL.

The structures appear in SMILES notation. Values after ≈ are worked out from the molar mass of the structure shown. Values joined by “and” are separate entries in the source; they are usually repeats but may differ in a detail not shown here. Equal values may be shown once. Read-outs that look alike come from different tables or passages of the source.

With `Cc1c(CN(C)C(=O)/C=C/c2cnc3c(c2)CCC(=O)N3)oc2ccccc12` [Debio 1452, (E)-N-methyl-N-((3-methylbenzofuran-2-yl)methyl)-3-(7-oxo-5,6,7,8-tetrahydro-1,8-naphthyridin-3-yl)acrylamide, reference compound], the MIC in the data set on N. gonorrhoeae (screening panel N. gonorrhoeae isolate E) is 0.5 µg/mL (≈ 1.33 µM); in the data set on N. gonorrhoeae (screening panel N. gonorrhoeae isolate F), 2 µg/mL (≈ 5.33 µM); in the data set on N. gonorrhoeae (screening panel N. gonorrhoeae isolate G) it was 4 µg/mL (≈ 10.7 µM); in the data set with N. gonorrhoeae (screening panel N. gonorrhoeae isolate H), 2 µg/mL (≈ 5.33 µM); in the data set on N. gonorrhoeae (screening panel N. gonorrhoeae isolate I), 1 µg/mL (≈ 2.66 µM); in the data set with N. gonorrhoeae (screening panel N. gonorrhoeae isolate J) it was 2 µg/mL (≈ 5.33 µM). In the data set with N. gonorrhoeae (screening panel N. gonorrhoeae isolate K), the MIC was found to be 4 µg/mL (≈ 10.7 µM). Moreover, in data set [1] (deduced from Figure 3A of reference 15), the half-maximal inhibitory concentration (IC50) is ~100 nM. For the same compound, the Ki in data set [1] (seen by the reviewer in the cited work, read-out: Kiapp) was 5 nM.
In the case of `COS(C)(=O)=O` [MMS, Methyl methanesulfonate], in the data set with E. coli WP2 uvrA, the “Ames bacterial mutation assessment, Mean” value was 168; the Colony count is 174 and 161 and 169. Also, in data set [2], the Induced mutant frequency was determined as 421.6 and the “Mutant frequency per 10^6 cells” value stood at 490.9.
